Data taken from PubChem BioAssay (NCI).
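Following 48 hours of exposure in 96-well plates, responses at five concentrations were used to interpolate endpoints linearly. GI50 marks 50% less growth. TGI denotes the concentration required for complete inhibition of growth.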

How the values were obtained:
Experiment in all cases: NCI-60 cell line screen, 48 h
[1] = tested on: HL-60(TB) leukemia
[2] = tested on: SW-620 colon
[3] = tested on: UO-31 renal
[4] = tested on: SNB-75 CNS
[5] = tested on: LOX IMVI melanoma
[6] = tested on: COLO 205 colon
[7] = tested on: SN12C renal
[8] = tested on: SK-MEL-5 melanoma
[9] = tested on: HCT-116 colon
[10] = tested on: NCI-H522 lung
[11] = tested on: RPMI-8226 leukemia
[12] = tested on: SK-OV-3 ovarian
[13] = tested on: A549 NSCLC
[14] = tested on: SR leukemia
[15] = tested on: UACC-257 melanoma
[16] = tested on: NCI-H226 lung
[17] = tested on: HCC-2998 colon
[18] = tested on: A498 renal
[19] = tested on: MDA-MB-231 breast
[20] = tested on: HCT-15 colon
[21] = tested on: HOP-62 NSCLC
[22] = tested on: SF-295 CNS
[23] = tested on: MALME-3M melanoma
[24] = tested on: MCF7 breast
[25] = tested on: CAKI-1 renal
[26] = tested on: T-47D breast
[27] = tested on: MDA-MB-435
[28] = tested on: ACHN renal
[29] = tested on: OVCAR-4 ovarian
[30] = tested on: SF-539 CNS
[31] = tested on: OVCAR-3 ovarian
[32] = tested on: MOLT-4 leukemia
[33] = tested on: HS 578T breast
[34] = tested on: NCI-H23 lung
[35] = tested on: KM12 colon
[36] = tested on: SK-MEL-2 melanoma
[37] = tested on: OVCAR-5 ovarian
[38] = tested on: HT29 colon
[39] = tested on: M14 melanoma
[40] = tested on: CCRF-CEM leukemia
[41] = tested on: BT-549 breast
[42] = tested on: TK-10 renal
[43] = tested on: SNB-19 CNS
[44] = tested on: IGROV1 ovarian
[45] = tested on: HOP-92 NSCLC
[46] = tested on: K-562 leukemia
[47] = tested on: PC-3 prostate
[48] = tested on: UACC-62 melanoma
[49] = tested on: 786-0 renal
[50] = tested on: U251 CNS
[51] = tested on: SK-MEL-28 melanoma
[52] = tested on: OVCAR-8 ovarian
[53] = tested on: NCI-H460 lung
[54] = tested on: SF-268 CNS
[55] = tested on: DU-145 prostate
[56] = tested on: NCI/ADR-RES ovarian
[57] = tested on: EKVX NSCLC
[58] = tested on: RXF 393 renal

CN(C)CCNc1cc(-c2ccccc2)nc2ccccc12
GI50 [1]: 4.58 µM | TGI [1]: 22.3 µM | GI50 [2]: 3.94 µM | TGI [2]: 21.5 µM | GI50 [3]: 4.01 µM | TGI [3]: 26.9 µM | GI50 [4]: 9.57 µM | TGI [4]: 23.4 µM | GI50 [5]: 3.6 µM | TGI [5]: 14.4 µM | GI50 [6]: 2.92 µM | TGI [6]: 7.74 µM | GI50 [7]: 6.55 µM | TGI [7]: 44.1 µM | GI50 [8]: 10.1 µM | TGI [8]: 22.4 µM | GI50 [9]: 3.75 µM | TGI [9]: 18.8 µM | GI50 [10]: 8.11 µM | TGI [10]: 27.8 µM | GI50 [11]: 4.09 µM | TGI [11]: 21.8 µM | GI50 [12]: 9.24 µM | TGI [12]: 39 µM | GI50 [13]: 4.83 µM | TGI [13]: 43.5 µM | GI50 [14]: 2.72 µM | TGI [14]: 8.37 µM | GI50 [15]: 11.5 µM | TGI [15]: 26.7 µM | GI50 [16]: 5.98 µM | TGI [16]: 30.2 µM | GI50 [17]: 10.2 µM | TGI [17]: 25.1 µM | GI50 [18]: 2.01 µM | TGI [18]: 13.6 µM | GI50 [19]: 7.45 µM | TGI [19]: 32.5 µM | GI50 [20]: 4.48 µM | TGI [20]: 62.5 µM | GI50 [21]: 6.02 µM | TGI [21]: 32.9 µM | GI50 [22]: 7.85 µM | TGI [22]: 46.9 µM | GI50 [23]: 12.6 µM | TGI [23]: 27.7 µM | GI50 [24]: 3.68 µM | TGI [24]: 19.7 µM | GI50 [25]: 6.56 µM | TGI [25]: 40.9 µM | GI50 [26]: 8.79 µM | TGI [26]: 37.2 µM | GI50 [27]: 6.12 µM | TGI [27]: 20.6 µM | GI50 [28]: 4.42 µM | TGI [28]: 38.9 µM | GI50 [29]: 7.45 µM | TGI [29]: 37.4 µM | GI50 [30]: 8.22 µM | TGI [30]: 22.7 µM | GI50 [31]: 8.9 µM | TGI [31]: 33.1 µM | GI50 [32]: 3.27 µM | TGI [32]: 11.6 µM | GI50 [33]: 12 µM | TGI [33]: 37.1 µM | GI50 [34]: 11.2 µM | TGI [34]: 37.6 µM | GI50 [35]: 4.87 µM | TGI [35]: 27.4 µM | GI50 [36]: 11.3 µM | TGI [36]: 24.9 µM | GI50 [37]: 5.9 µM | TGI [37]: 36.8 µM | GI50 [38]: 4.01 µM | TGI [38]: 16.7 µM | GI50 [39]: 10.3 µM | TGI [39]: 24.8 µM | GI50 [40]: 4.43 µM | TGI [40]: 37.3 µM | GI50 [41]: 11.5 µM | TGI [41]: 28.8 µM | GI50 [42]: 6.94 µM | TGI [42]: 38.8 µM | GI50 [43]: 14.6 µM | TGI [43]: 49.7 µM | GI50 [44]: 6.57 µM | TGI [44]: 35.1 µM | GI50 [45]: 3.21 µM | TGI [45]: 21.3 µM | GI50 [46]: 2.6 µM | TGI [46]: 12.3 µM | GI50 [47]: 4.61 µM | TGI [47]: 24.9 µM | GI50 [48]: 13.7 µM | TGI [48]: 30 µM | GI50 [49]: 6.87 µM | TGI [49]: 23.8 µM | GI50 [50]: 3.48 µM | TGI [50]: 11.2 µM | GI50 [51]: 13.4 µM | TGI [51]: 28.5 µM | GI50 [52]: 4.1 µM | TGI [52]: 22 µM | GI50 [53]: 3.5 µM | TGI [53]: 12.8 µM | GI50 [54]: 4.98 µM | TGI [54]: 22.7 µM | GI50 [55]: 5.04 µM | TGI [55]: 22.2 µM | GI50 [56]: 9.11 µM | TGI [56]: 53.3 µM

CCc1c(Oc2ccc(C(C)=O)cc2)c2ccccc2[nH]c1=O
GI50 [57]: 9.65 µM | TGI [57]: > 66 µM | GI50 [2]: 22.2 µM | TGI [2]: 67.4 µM | GI50 [3]: 19.5 µM | TGI [3]: > 100 µM | GI50 [4]: > 26.9 µM | TGI [4]: > 100 µM | GI50 [5]: 17.3 µM | TGI [5]: 46.2 µM | GI50 [6]: 13.7 µM | TGI [6]: 40.7 µM | GI50 [7]: 16.6 µM | TGI [7]: 61.8 µM | GI50 [8]: 13 µM | TGI [8]: 27.5 µM | GI50 [9]: 18.5 µM | TGI [9]: 52.8 µM | GI50 [10]: 14.1 µM | TGI [10]: > 68.3 µM | GI50 [11]: 3.65 µM | TGI [11]: > 42.5 µM | GI50 [12]: 21 µM | TGI [12]: 74.5 µM | GI50 [13]: 18.5 µM | TGI [13]: 59.5 µM | GI50 [14]: 9.09 µM | TGI [14]: > 100 µM | GI50 [15]: 14.5 µM | TGI [15]: 55.1 µM | GI50 [16]: 2.8 µM | TGI [16]: 43.9 µM | GI50 [17]: 14.3 µM | TGI [17]: 30 µM | GI50 [18]: 17.2 µM | TGI [18]: 32 µM | GI50 [19]: 7.03 µM | TGI [19]: 39.1 µM | GI50 [20]: 16.4 µM | TGI [20]: 96.8 µM | GI50 [21]: 20.4 µM | TGI [21]: 74.3 µM | GI50 [22]: 16.3 µM | TGI [22]: > 69.4 µM | GI50 [23]: 9.09 µM | TGI [23]: 42.3 µM | GI50 [24]: 10.5 µM | TGI [24]: > 71.7 µM | GI50 [25]: 15.8 µM | TGI [25]: 53.3 µM | GI50 [26]: 4.07 µM | TGI [26]: 24.6 µM | GI50 [27]: 16.5 µM | TGI [27]: > 100 µM | GI50 [28]: 16.7 µM | TGI [28]: 63.5 µM | GI50 [29]: 70 µM | TGI [29]: > 100 µM | GI50 [30]: 15.7 µM | TGI [30]: 38.6 µM | GI50 [31]: 26 µM | TGI [31]: 80.9 µM | GI50 [32]: 28 µM | TGI [32]: > 100 µM | GI50 [33]: 4.3 µM | TGI [33]: 43.6 µM | GI50 [34]: 18.7 µM | TGI [34]: 59.5 µM | GI50 [35]: 18.6 µM | TGI [35]: > 60.9 µM | GI50 [36]: 59.5 µM | TGI [36]: > 100 µM | GI50 [37]: 31.8 µM | TGI [37]: > 100 µM | GI50 [38]: 26.9 µM | TGI [38]: > 100 µM | GI50 [39]: 18.5 µM | TGI [39]: 65.9 µM | GI50 [58]: 20.1 µM | TGI [58]: 45.7 µM | TGI [40]: > 43.6 µM | GI50 [41]: 17.6 µM | TGI [41]: 70.8 µM | GI50 [42]: 7.03 µM | TGI [42]: 28.6 µM | GI50 [43]: 30.7 µM | TGI [43]: > 100 µM | GI50 [44]: 28.8 µM | TGI [44]: > 100 µM | GI50 [45]: 1.67 µM | TGI [45]: 11.7 µM | GI50 [46]: 18.8 µM | TGI [46]: > 76.9 µM | GI50 [47]: 0.97 µM | TGI [47]: > 40.8 µM | GI50 [48]: 3.74 µM | TGI [48]: 16.5 µM | GI50 [49]: 21.7 µM | TGI [49]: > 72.1 µM | GI50 [50]: 19.2 µM | TGI [50]: > 82 µM | GI50 [51]: 50.7 µM | TGI [51]: > 100 µM | GI50 [52]: 19.1 µM | TGI [52]: 53.4 µM | GI50 [53]: 18.7 µM | TGI [53]: 65.7 µM | GI50 [54]: 18.1 µM | TGI [54]: 61 µM | GI50 [55]: 25.4 µM | TGI [55]: 73.6 µM | GI50 [56]: 23 µM | TGI [56]: > 74 µM
